± gives the expanded uncertainty stated by the source.

For the data set the following is noted: Crystal; DTA.

Regarding `O=C1OCCO1` [ethylene carbonate], the Normal melting temperature was 38.00 ± 1 °C.

These data come from the NIST ThermoML archive (doi:10.1016/j.tca.2016.09.007).
